Source: patent US20130122541A1, “MICROORGANISM PRODUCTION OF HIGH-VALUE CHEMICAL PRODUCTS, AND RELATED COMPOSITIONS, METHODS AND SYSTEMS” (The Regents of the University of Colorado, priority 2010, published 2013)
Read-outs that look alike come from different tables or passages of the source.

Assays:
Assay in all cases: microbe, parasite or virus in culture
[1] = system: Yeast strains (S288C background); type: cell-based, Saccharomyces cerevisiae; conditions: for average MIC Assay Result (g/L 3-HP): MIC of 3-HP; for average MIC Assay Result (g/L 3-HP) / MIC: S288C, SD media plus the named supplement(s); for MIC: Saccharomyces cerevisiae, read-out: Average MIC Assay Result (g/L 3-HP), MIC of 3-HP
Experimental: The minimum inhibitory concentration (MIC) was determined anaerobically in a 96 well-plate format. […] A 1% (v/v) inoculum was introduced into a 5 ml culture of SD minimal media without vitamins. After the cells reached mid-exponential phase, the culture was diluted to an OD600 of 0.200. The cells were further diluted 1:5 and a 10 μL aliquot was used to inoculate each well of a 96 well plate (˜10^4 cells per well) to total volume of 100 uL. […] Plates were incubated for 72 hours at 30 C. […] Plates were sealed in biobag anaerobic chambers that contained gas generators for anaerobic conditions and incubated for 72 hours at 30 C.

[2] = system: Yeast strains (S288C background); type: cell-based, Saccharomyces cerevisiae; conditions: for average MIC Assay Result (g/L 3-HP): MIC of 3-HP; for average MIC Assay Result (g/L 3-HP) / MIC: S288C, SD media plus the named supplement(s); for MIC: Saccharomyces cerevisiae, read-out: Average MIC Assay Result (g/L 3-HP), MIC of 3-HP; remark: listed apart in the source
Experimental: The minimum inhibitory concentration (MIC) was determined aerobically in a 96 well-plate format. […] Media supplements were added according to levels reported in the Supplements Table, where specified. Overnight cultures of strains were grown in triplicate in 5 mL SD media with vitamins (Methods in Enzymology vol. 350, page 17 (2002)). A 1% (v/v) inoculum was introduced into a 5 ml culture of SD minimal media without vitamins. After the cells reached mid-exponential phase, the culture was diluted to an OD600 of 0.200. The cells were further diluted 1:5 and a 10 μL aliquot was used to inoculate each well of a 96 well plate (˜10^4 cells per well) to total volume of 100 uL. […] Plates were incubated for 72 hours at 30 C.

[3] = system: E. coli; type: cell-based
Experimental: (§1) For MIC evaluations, the final results are expressed in chemical agent concentrations determined by analysis of the stock solution by HPLC (i.e., see Subsection IIIb).
(§2) The minimum inhibitory concentration (MIC) was determined aerobically in a 96 well-plate format. […] Media supplements were added according to levels reported in the Supplements Table, where specified. Overnight cultures of strains were grown in triplicate in 5 mL LB (with antibiotic where appropriate). A 1% (v/v) inoculum was introduced into a 5 ml culture of M9 minimal media.

[4] = system: E. coli; type: cell-based; conditions: anaerobic; for % Increase Over Control: 3-HP MIC with named supplement(s) vs BW25113 in M9 without supplement; for MIC Assay Result (g/L 3-HP): MIC of 3-HP, BW25113, M9 media plus the named supplement(s), 24-hour
Experimental: as §1
as §2, with “anaerobically” for “aerobically”

[5] = 3-HP MIC with named supplement(s) vs S288C in SD without supplement, anaerobic
[6] = 3-HP MIC with named supplement(s) vs S288C in SD without supplement, aerobic
[7] = MIC of 3-HP for strain BW25113, M9 media with the named supplement(s), aerobic, 24-hour MIC evaluation
[8] = increase of 3-HP MIC over BW25113 in M9 without supplements, M9 media with the named supplement(s), aerobic

Compound	% Increase Over Control [1, 5]	average MIC Assay Result (g/L 3-HP) ([1]; anaerobic)	average MIC Assay Result (g/L 3-HP) [3, 7]	% Increase Over Control [3, 8]	other results
CCC(=O)C(=O)O [2-oxobutyrate (B)]	2%	38 g/L	–	–	% Increase Over Control [2, 6]: 11%; average MIC Assay Result (g/L 3-HP) ([2]; aerobic): 50 g/L
N[C@@H](CC(=O)O)C(=O)O [Aspartate]	–	–	–	–	% Increase Over Control [2, 6]: 26%; MIC ([2]; aerobic): 57 g/L
O=C(O)O [Bicarbonate (C)]	140%	90 g/L	44 g/L 3-HP	59%	–
NCCCCCN [Cadaverine (C)]	60%	–	35 g/L 3-HP	–	MIC ([1]; anaerobic): 60 g/L
NC(=O)NCCC[C@H](N)C(=O)O [Citrulline (C)]	158%	97 g/L	30 g/L 3-HP	9%	% Increase Over Control [2, 6]: 28%; average MIC Assay Result (g/L 3-HP) ([2]; aerobic): 58 g/L
NC(=O)CC[C@H](N)C(=O)O [Glutamine (C)]	–	–	30 g/L 3-HP	9%	–
NCC(=O)O [Glycine (B)]	60%	60 g/L	–	–	% Increase Over Control [3]: 3%; average MIC Assay Result (g/L 3-HP) [3]: 28 g/L 3-HP; % Increase Over Control [2, 6]: 11%; average MIC Assay Result (g/L 3-HP) ([2]; aerobic): 50 g/L
NC(CCS)C(=O)O (stereo not drawn) [Homocysteine (B)]	7%	40 g/L	30 g/L 3-HP	9%	–
N[C@@H](CCO)C(=O)O [Homoserine (B)]	–	–	35 g/L 3-HP	–	–
CC[C@H](C)[C@H](N)C(=O)O [Isoleucine (B)]	2%	38 g/L	32 g/L 3-HP	17%	–
NCCCC[C@H](N)C(=O)O [Lysine (D)]	20%	45 g/L	37 g/L 3-HP	33%	% Increase Over Control [4]: 39%; MIC Assay Result (g/L 3-HP) [4]: 41.7 g/L
NCCC[C@H](N)C(=O)O [Ornithine (C)]	–	–	30 g/L 3-HP	9%	–
N[C@@H](Cc1ccccc1)C(=O)O [Phenylalanine (A)]	2%	–	32 g/L 3-HP	17%	MIC ([1]; anaerobic): 38 g/L
NCCCCN [Putrescine (C)]	–	–	–	–	average MIC Assay Result (g/L 3-HP) [3]: 30 g/L 3-HP
NCCCCN [Putrescine(C)]	–	–	–	–	% Increase Over Control [1]: 56%; % Increase Over Control [2]: 22%
N[C@@H](CO)C(=O)O [Serine (B)]	20%	45 g/L	32 g/L 3-HP	17%	% Increase Over Control [4]: 7%; MIC Assay Result (g/L 3-HP) [4]: 32.1 g/L
NCCCCNCCCN [Spermidine (C)]	60%	–	40 g/L 3-HP	–	MIC ([1]; anaerobic): 60 g/L
Nc1nc(=O)c2c([nH]1)NC[C@@H](CNc1ccc(C(=O)N[C@@H](CCC(=O)O)C(=O)O)cc1)N2 [Tetrahydrofolate (A)]	–	–	30 g/L 3-HP	9%	% Increase Over Control [4]: 33%; MIC Assay Result (g/L 3-HP) [4]: 40.0 g/L
C[C@@H](O)[C@H](N)C(=O)O [Threonine (B)]	2%	–	32 g/L 3-HP	–	MIC ([1]; anaerobic): 38 g/L
N[C@@H](Cc1c[nH]c2ccccc12)C(=O)O [Tryptophan (A)]	47%	–	–	–	MIC ([1]; anaerobic): 55 g/L; % Increase Over Control [2, 6]: 20%; MIC ([2]; aerobic): 54 g/L
Nc1ccc(C(=O)O)cc1 [p-aminobenzoate (A)]	–	–	35 g/L 3-HP	27%	% Increase Over Control [4]: 33%; MIC Assay Result (g/L 3-HP) [4]: 40.0 g/L
